# Columns and labels:
# dental plaque formation [1] = assay: 24-hour plaque accumulation model, direct application to the teeth with a dental swab; format: in vivo, dog; conditions: dogs
# Experimental: Ascorbyl palmitate was assessed for its ability to inhibit dental plaque in 24-hour plaque accumulation model, according to a modification of the method of […] et al. ([…] et al. (2007) J. Vet. Dent. 24(1): 14-20), in which the compound to be tested is directly applied to the teeth as a solution using a dental swab as applicator, and the dental plaque accumulation time was set at 24 hours. A solution of ascorbyl palmitate (0.3 g in 10 mL soybean oil) was administered to the cleaned buccal tooth and gingival surfaces of each dog using a dental swab, in such a manner that 0.3 g of ascorbyl palmitate was applied. Control animals were treated with soybean oil alone. Twenty-four hours after application, the accumulation of dental plaque was quantitatively evaluated using a standardized method designated as the gingival contour plaque index (“GCPI”). […] The GCPI uses a scale of 0-100%.
# dental plaque formation [2] = assay: 8-day GCPI dental plaque quantification model, feeding food coated with ascorbyl palmitate solution; format: in vivo, dogs; conditions: four days
# Experimental: Ascorbyl palmitate was assessed for its ability to inhibit dental plaque formation when applied indirectly, i.e., by feeding animals a pet food composition as described. In this experiment, the 8-day GCPI dental plaques quantification model of […] et al. was used ([…] et al. (2007) J. Vet. Dent. 24(1): 14-20). The teeth of the test animals are cleaned at the beginning of the study, after which the animals were fed either a control food (a commercially-available canine pet food composition) or the same food upon which a solution of ascorbyl palmitate in soybean oil was sprayed to a final concentration (w/w) of 0.1% of the total weight of the food. The food coated with the ascorbyl palmitate solution was fed to dogs over a period of four days and dental plaque accumulation was quantified and compared with their dental plaque accumulation while on the control food. […] The GCPI uses a scale of 0-100%.
compound,measurement,setting,value
CCCCCCCCCCCCCCCC(=O)OC[C@H](O)[C@H]1OC(=O)C(O)=C1O [ascorbyl palmitate],improvement in plaque accumulation versus soybean oil control,"dental plaque formation [1]; 0.3 g applied directly, 24 hours",27.8%
same,Plaque accumulation average score (GCPI),"dental plaque formation [1]; 0.3 g in 10 mL soybean oil applied to cleaned buccal tooth and gingival surfaces, 24 hours after application, GCPI scale 0-100%, soybean oil control 24.9±9.4",18.9±9%
same,Plaque accumulation average score (GCPI),"dental plaque formation [2]; dogs fed food sprayed with ascorbyl palmitate in soybean oil to 0.1% (w/w) of the food, GCPI scale 0-100%, control food 68.2±11.9",53.7±12.1%
same,improvement in plaque accumulation versus control food,"dental plaque formation [2]; dogs, food with 0.1% (w/w) ascorbyl palmitate",21.3%

# From patent US20140348897A1, “TREATMENT OR REDUCTION OF DENTAL CONDITIONS WITH ASCORBYL ESTERS” (HILL'S PET NUTRITION, INC., priority 2011, published 2014)
